pIC50: −log10 of the molar value.
Columns and labels:
Assay in all cases: cells
[1] = test system: MZ7-mel; type: functional, cell-based, Homo sapiens; conditions: Homo sapiens, MZ7-mel;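 further: growth inhibition of human MZ7-mel cells, measured by a cell viability assay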
Description: SANGER: Inhibition of human MZ7-mel cell growth in a cell viability assay.

[2] = test system: SK-MEL-2; type: functional, cell-based, Homo sapiens; conditions: Homo sapiens, SK-MEL-2;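 further: growth inhibition of human SK-MEL-2 cells measured with a cell viability assay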
Description: SANGER: Inhibition of human SK-MEL-2 cell growth in a cell viability assay.

[3] = test system: RPMI-8226; type: functional, cell-based; conditions: Homo sapiens
Description: SANGER: Inhibition of human RPMI-8226 cell growth in a cell viability assay.

[4] = test system: HOP-62; type: functional, cell-based, Homo sapiens; conditions: Homo sapiens, HOP-62;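 further: cell growth inhibition determined with a viability assay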
Description: SANGER: Inhibition of human HOP-62 cell growth in a cell viability assay.

[5] = test system: KP-N-YN; type: functional, cell-based; conditions: Homo sapiens;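 further: growth inhibition of KP-N-YN cells, read out with a cell viability assay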
Description: SANGER: Inhibition of human KP-N-YN cell growth in a cell viability assay.

[6] = test system: L-363; type: functional, cell-based; conditions: Homo sapiens
Description: SANGER: Inhibition of human L-363 cell growth in a cell viability assay.

[7] = test system: IST-MES1; type: functional, cell-based, Homo sapiens; conditions: Homo sapiens, IST-MES1;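 further: growth inhibition of IST-MES1 cells, measured with a cell viability assay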
Description: SANGER: Inhibition of human IST-MES1 cell growth in a cell viability assay.

[8] = test system: NCI-N87; type: functional, cell-based, Homo sapiens; conditions: Homo sapiens, NCI-N87;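 further: growth inhibition of human NCI-N87 cells, read out with a cell viability assay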
Description: SANGER: Inhibition of human NCI-N87 cell growth in a cell viability assay.

[9] = test system: HCC2218; type: functional, cell-based; conditions: Homo sapiens;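 further: cell viability assay read-out, with IC50 given as the concentration that inhibits growth of the cell line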
Description: SANGER: Inhibition of human HCC2218 cell growth in a cell viability assay.

[10] = test system: NOMO-1; type: functional, cell-based; conditions: Homo sapiens;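 further: growth inhibition of human NOMO-1 cells measured by a cell viability assay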
Description: SANGER: Inhibition of human NOMO-1 cell growth in a cell viability assay.

[11] = test system: KURAMOCHI; type: functional, cell-based; conditions: Homo sapiens;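 further: growth inhibition of KURAMOCHI cells, read out with a cell viability assay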
Description: SANGER: Inhibition of human KURAMOCHI cell growth in a cell viability assay.

[12] = test system: NB6; type: functional, cell-based, Homo sapiens; conditions: Homo sapiens, NB6;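 further: growth inhibition of NB6 cells, read out by a cell viability assay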
Description: SANGER: Inhibition of human NB6 cell growth in a cell viability assay.

[13] = test system: SBC-1; type: functional, cell-based; conditions: Homo sapiens;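 further: cell viability assay measuring growth inhibition of the SBC-1 cell line, IC50 being the concentration that halves growth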
Description: SANGER: Inhibition of human SBC-1 cell growth in a cell viability assay.

[14] = test system: RXF 393; type: functional, cell-based; conditions: Homo sapiens;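 further: growth inhibition of human RXF 393 cells, read out with a cell viability assay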
Description: SANGER: Inhibition of human RXF393 cell growth in a cell viability assay.

[15] = test system: ES8; type: functional, cell-based, Homo sapiens; conditions: Homo sapiens, ES8;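 further: growth inhibition of human ES8 cells, read out with a cell viability assay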
Description: SANGER: Inhibition of human ES8 cell growth in a cell viability assay.

[16] = test system: TE-10; type: functional, cell-based, Homo sapiens; conditions: Homo sapiens, TE-10;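 further: growth inhibition of TE-10 cells, measured by a cell viability assay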
Description: SANGER: Inhibition of human TE-10 cell growth in a cell viability assay.

[17] = test system: GAK; type: functional, cell-based, Homo sapiens; conditions: Homo sapiens, GAK;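 further: cell growth inhibition read out by a cell viability assay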
Description: SANGER: Inhibition of human GAK cell growth in a cell viability assay.

[18] = test system: KARPAS-299; type: functional, cell-based; conditions: Homo sapiens
Description: SANGER: Inhibition of human KARPAS-299 cell growth in a cell viability assay.

[19] = test system: GI-ME-N; type: functional, cell-based, Homo sapiens; conditions: Homo sapiens, GI-ME-N;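 further: growth inhibition of human GI-ME-N cells, read out with a cell viability assay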
Description: SANGER: Inhibition of human GI-ME-N cell growth in a cell viability assay.

[20] = test system: LB1047-RCC; type: functional, cell-based, Homo sapiens; conditions: Homo sapiens, LB1047-RCC;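 further: inhibition of cell growth, determined with a cell viability assay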
Description: SANGER: Inhibition of human LB1047-RCC cell growth in a cell viability assay.

[21] = test system: OCI-AML2; type: functional, cell-based; conditions: Homo sapiens;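 further: growth inhibition of OCI-AML2 cells, read out with a cell viability assay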
Description: SANGER: Inhibition of human OCI-AML2 cell growth in a cell viability assay.

[22] = test system: HCE-T; type: functional, cell-based, Homo sapiens; conditions: Homo sapiens, HCE-T;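 further: cell viability assay read-out, reporting inhibition of HCE-T cell growth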
Description: SANGER: Inhibition of human HCE-T cell growth in a cell viability assay.

[23] = test system: COLO-829; type: functional, cell-based, Homo sapiens; conditions: Homo sapiens, COLO-829
Description: SANGER: Inhibition of human COLO-829 cell growth in a cell viability assay.

[24] = test system: HD-MY-Z; type: functional, cell-based, Homo sapiens; conditions: Homo sapiens, HD-MY-Z;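 further: growth inhibition of HD-MY-Z cells, read out with a cell viability assay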
Description: SANGER: Inhibition of human HD-MY-Z cell growth in a cell viability assay.

[25] = test system: NB14; type: functional, cell-based; conditions: Homo sapiens;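 further: growth inhibition of NB14 cells measured with a cell viability assay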
Description: SANGER: Inhibition of human NB14 cell growth in a cell viability assay.

[26] = test system: TE-9; type: functional, cell-based, Homo sapiens; conditions: Homo sapiens, TE-9;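 further: cell growth inhibition, measured with a cell viability readout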
Description: SANGER: Inhibition of human TE-9 cell growth in a cell viability assay.

[27] = test system: BB30-HNC; type: functional, cell-based, Homo sapiens; conditions: Homo sapiens, BB30-HNC;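 further: growth inhibition of the cultured cell line, read out by a cell viability assay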
Description: SANGER: Inhibition of human BB30-HNC cell growth in a cell viability assay.

[28] = test system: Becker; type: functional, cell-based, Homo sapiens; conditions: Homo sapiens, Becker;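 further: growth inhibition of Becker cells, read out with a cell viability assay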
Description: SANGER: Inhibition of human Becker cell growth in a cell viability assay.

[29] = test system: EKVX; type: functional, cell-based, Homo sapiens; conditions: Homo sapiens, EKVX;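 further: growth inhibition of human EKVX cells, read out with a cell viability assay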
Description: SANGER: Inhibition of human EKVX cell growth in a cell viability assay.

[30] = test system: EW-16; type: functional, cell-based, Homo sapiens; conditions: Homo sapiens, EW-16;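 further: growth inhibition of human EW-16 cells, read out as cell viability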
Description: SANGER: Inhibition of human EW-16 cell growth in a cell viability assay.

[31] = test system: NCI-H28; type: functional, cell-based, Homo sapiens; conditions: Homo sapiens, NCI-H28;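 further: growth inhibition of human NCI-H28 cells, read out as cell viability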
Description: SANGER: Inhibition of human NCI-H28 cell growth in a cell viability assay.

[32] = test system: COLO-741; type: functional, cell-based, Homo sapiens; conditions: Homo sapiens, COLO-741
Description: SANGER: Inhibition of human COLO-741 cell growth in a cell viability assay.

[33] = test system: HCC38; type: functional, cell-based, Homo sapiens; conditions: Homo sapiens, HCC38;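 further: cell viability assay on the human HCC38 cell line, with IC50 marking the concentration that inhibits cell growth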
Description: SANGER: Inhibition of human HCC38 cell growth in a cell viability assay.

[34] = test system: 769-P; type: functional, cell-based, Homo sapiens; conditions: Homo sapiens, 769-P
Description: SANGER: Inhibition of human 769-P cell growth in a cell viability assay.

[35] = test system: SW837; type: functional, cell-based, Homo sapiens; conditions: Homo sapiens, SW837;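 further: growth inhibition of SW837 cells, determined with a cell viability assay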
Description: SANGER: Inhibition of human SW837 cell growth in a cell viability assay.

[36] = test system: PC-3; type: functional, cell-based, Homo sapiens; conditions: Homo sapiens, PC-3;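 further: cell viability assay measuring growth inhibition of PC-3 cells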
Description: SANGER: Inhibition of human PC-3 cell growth in a cell viability assay.

[37] = test system: SF-295; type: functional, cell-based, Homo sapiens; conditions: Homo sapiens, SF-295; read-out: IC50;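 further: growth inhibition of SF-295 cells, read out with a cell viability assay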
Description: SANGER: Inhibition of human SF295 cell growth in a cell viability assay.

[38] = test system: 8305C; type: functional, cell-based, Homo sapiens; conditions: Homo sapiens, 8305C
Description: SANGER: Inhibition of human 8305C cell growth in a cell viability assay.

[39] = test system: GMS-10; type: functional, cell-based, Homo sapiens; conditions: Homo sapiens, GMS-10;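 further: growth inhibition of GMS-10 cells, read out as cell viability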
Description: SANGER: Inhibition of human GMS-10 cell growth in a cell viability assay.

[40] = test system: OVCAR-5; type: functional, cell-based, Homo sapiens; conditions: Homo sapiens, OVCAR-5;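 further: growth inhibition of human OVCAR-5 cells, read out with a cell viability assay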
Description: SANGER: Inhibition of human OVCAR-5 cell growth in a cell viability assay.

[41] = test system: A2780; type: functional, cell-based, Homo sapiens; conditions: Homo sapiens, A2780;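 further: growth inhibition of A2780 cells, read out with a cell viability assay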
Description: SANGER: Inhibition of human A2780 cell growth in a cell viability assay.

[42] = test system: RD; type: functional, cell-based, Homo sapiens; conditions: Homo sapiens, RD
Description: SANGER: Inhibition of human RD cell growth in a cell viability assay.

[43] = test system: CAL-27; type: functional, cell-based, Homo sapiens; conditions: Homo sapiens, CAL-27;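 further: Viability-based readout, IC50 reflecting inhibition of CAL-27 cell growth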
Description: SANGER: Inhibition of human CAL-27 cell growth in a cell viability assay.

[44] = test system: Calu-3; type: functional, cell-based, Homo sapiens; conditions: Homo sapiens, Calu-3;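 further: growth inhibition of human Calu-3 cells, determined with a cell viability assay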
Description: SANGER: Inhibition of human Calu-3 cell growth in a cell viability assay.

[45] = test system: HuP-T3; type: functional, cell-based, Homo sapiens; conditions: Homo sapiens, HuP-T3;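 further: HuP-T3 cell growth inhibition, read out with a cell viability assay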
Description: SANGER: Inhibition of human HuP-T3 cell growth in a cell viability assay.

[46] = test system: C-33-A; type: functional, cell-based, Homo sapiens; conditions: Homo sapiens, C-33-A;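 further: cell viability assay measuring growth inhibition of C-33-A cells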
Description: SANGER: Inhibition of human C-33-A cell growth in a cell viability assay.

[47] = test system: SKG-IIIa; type: functional, cell-based, Homo sapiens; conditions: Homo sapiens, SKG-IIIa;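 further: cell growth inhibition, read out with a cell viability assay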
Description: SANGER: Inhibition of human SKG-IIIa cell growth in a cell viability assay.

[48] = test system: 786-0; type: functional, cell-based, Homo sapiens; conditions: Homo sapiens
Description: SANGER: Inhibition of human 786-0 cell growth in a cell viability assay.

[49] = test system: BHT-101; type: functional, cell-based, Homo sapiens; conditions: Homo sapiens, BHT-101
Description: SANGER: Inhibition of human BHT-101 cell growth in a cell viability assay.

[50] = test system: LK-2; type: functional, cell-based, Homo sapiens; conditions: Homo sapiens, LK-2;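 further: growth inhibition of LK-2 cells, read out with a viability assay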
Description: SANGER: Inhibition of human LK-2 cell growth in a cell viability assay.

[51] = test system: UMUC3; type: functional, cell-based, Homo sapiens; conditions: Homo sapiens, UMUC3;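 further: growth inhibition of human UM-UC-3 cells, read out with a cell viability assay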
Description: SANGER: Inhibition of human UM-UC-3 cell growth in a cell viability assay.

[52] = test system: NCI-H2052; type: functional, cell-based, Homo sapiens; conditions: Homo sapiens, NCI-H2052;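 further: growth inhibition of NCI-H2052 cells, read out with a cell viability assay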
Description: SANGER: Inhibition of human NCI-H2052 cell growth in a cell viability assay.

C=C1C(=O)O[C@@H]2C3O[C@]3(C)CC/C=C(\C)CC[C@@H]12 (stereo not given in full)
pIC50 [1]: < 5.30 | pIC50 [2]: < 5.30 | pIC50 [3]: < 5.30 | pIC50 [4]: < 5.30 | pIC50 [5]: < 5.30 | pIC50 [6]: < 5.30 | pIC50 [7]: < 5.30 | pIC50 [8]: < 5.30 | pIC50 [9]: < 5.30 | pIC50 [10]: < 5.30 | pIC50 [11]: < 5.30 | pIC50 [12]: < 5.30 | pIC50 [13]: < 5.30 | pIC50 [14]: < 5.30 | pIC50 [15]: < 5.30 | pIC50 [16]: < 5.30 | pIC50 [17]: < 5.30 | pIC50 [18]: < 5.30 | pIC50 [19]: < 5.30 | pIC50 [20]: < 5.30 | pIC50 [21]: < 5.30 | pIC50 [22]: < 5.30 | pIC50 [23]: < 5.30 | pIC50 [24]: < 5.30 | pIC50 [25]: < 5.30 | pIC50 [26]: < 5.30 | pIC50 [27]: < 5.30 | pIC50 [28]: < 5.30 | pIC50 [29]: < 5.30 | pIC50 [30]: < 5.30

COC(=O)CNC(=O)C(=O)OC
pIC50 [1]: 3.77 | pIC50 [2]: 2.71 | pIC50 [31]: 2.87 | pIC50 [3]: 3.06 | pIC50 [32]: < 2.40 | pIC50 [33]: 2.76 | pIC50 [4]: 3.78 | pIC50 [34]: < 2.40 | pIC50 [6]: 3.82 | pIC50 [7]: < 2.40 | pIC50 [8]: 2.40 | pIC50 [35]: 3.07 | pIC50 [9]: < 2.40 | pIC50 [36]: 3.38 | pIC50 [37]: 3.46 | pIC50 [38]: 3.22 | pIC50 [39]: 2.66 | pIC50 [10]: 3.81 | pIC50 [40]: 3.34 | pIC50 [11]: 2.80 | pIC50 [41]: 2.69 | pIC50 [42]: 3.16 | pIC50 [12]: 2.72 | pIC50 [13]: 2.85 | pIC50 [14]: 2.90 | pIC50 [43]: < 2.40 | pIC50 [15]: 3.17 | pIC50 [44]: 4.18 | pIC50 [45]: 3.39 | pIC50 [46]: < 2.40 | pIC50 [47]: 3.51 | pIC50 [16]: 3.20 | pIC50 [17]: 3.11 | pIC50 [18]: 4.01 | pIC50 [19]: 2.67 | pIC50 [48]: < 2.40 | pIC50 [20]: 4.30 | pIC50 [49]: < 2.40 | pIC50 [21]: 3.30 | pIC50 [22]: 2.46 | pIC50 [23]: 3.95 | pIC50 [24]: 2.83 | pIC50 [26]: 3.02 | pIC50 [50]: < 2.40 | pIC50 [27]: 3.83 | pIC50 [51]: 3.58 | pIC50 [28]: 3.56 | pIC50 [29]: 3.29 | pIC50 [30]: 3.42 | pIC50 [52]: 2.54

Source: ChEMBL document CHEMBL1201861, “Genomics of Drug Sensitity in Cancer screening data, Wellcome Trust Sanger Institute”
